# Source: publication PMC8443589, “Modelling human liver fibrosis in the context of non-alcoholic steatohepatitis using a microphysiological system” (Communications Biology, 2021)
# What was measured:
# [1] = Non-specific compound binding: drug recovery in blank liver MPS plates (no cells), LC-MS; assay type: in vitro ADME; conditions: blank liver MPS platform/plates, vs input media, read-out: Drug recovery incubation in blank MPS platform (no cells)
# [2] = system: liver MPS NASH model (PHH, KC and HSC co-cultures, high fat); test: Secreted cytokine/biomarker profile (Luminex, ELISA) of liver MPS NASH model dosed with OCA or ELF; assay type: cell-based, human
# Procedure: Fig. 3 Obeticholic acid and Elafibranor both modulate inflammatory and fibrosis phenotype in liver MPS NASH model and phenotype can additionally be reversed with dietary changes. PHH, KC and HSC co-cultures were cultured in the MPS platform under high fat conditions and dosed with varying concentrations of Obeticholic acid (OCA) and Elafibranor (ELF) QD or vehicle control (control) for 10 days, following an initial 4-day pre-culture phase. a The secreted cytokine profile from liver microtissues was compared by Luminex to determine the effects of each compound on the inflammatory profile of the liver with samples analysed at day 8 and 14 of the culture. Data were normalised by Z-transformation to allow comparison of all analytes and presented as a heatmap. b The expression of fibrosis-associated genes was analysed in total RNA from control, OCA and ELF treated liver microtissues (highest concentration for each compound) using Human Fibrosis RT2 Profiler PCR Arrays. Gene expression changes are expressed as a fold change over control. c Liver microtissues were stained for collagen-type I, α-SMA, nuclei (DAPI - blue), phalloidin (green) and imaged by confocal microscopy. Representative images are shown and scale bars 200 µm. d Staining of microtissue was quantified by measuring total fluorescence intensity throughout individual microtissues, each data point represents an average of all the microtissues imaged within an MPS scaffold (min 8, max 20 microtissues). e PHH, KC and HSC co-cultures were cultured in the MPS platform under high fat or lean conditions for 30 days. Cultures either remained in the same type of media throughout or were switched at day 15 from fat media to lean media (Fat -> Lean). Cell culture medium samples were analysed for the presence of IL-6, f MCP-1, g TIMP-1, which were measured by ELISA. h Microtissues were stained with Oil-Red O to determine fat loading during culture period, total stain was quantified by absorbance at 510 nm. All datapoints shown, either as box-whisker plots highlighting mean and min-max or with error bars highlighting means ± SD. All data from a minimum of three independent cultures; statistical comparisons made to control samples unless other comparison shown.
# Soluble biomarkers in cell culture medium from the MPS were analysed by enzyme-linked immunosorbent assay (ELISA); IL-6 was measured by Human IL-6 DuoSet ELISA (R&D Systems); MCP-1 was measured by Human CCL2/MCP-1 DuoSet ELISA (R&D Systems); pro-collagen 1 was measured by Human Pro-Collagen I α1 DuoSet (R&D Systems); TIMP-1 was measured by Human TIMP-1 Quantikine ELISA Kit (R&D Systems); Fibronectin was measured by Human Fibronectin DuoSet ELISA (R&D Systems); YKL-40 was measured by Human Chitinase 3-like 1 Quantikine ELISA Kit (R&D Systems); Albumin secretion was measured by Human Albumin AssayMax™ ELISA kit (Assay Pro, St. Charles, MO). For all assays, the manufacturer’s protocol was followed.
# Cytokine profiles in cell culture medium samples were also analysed by Luminex array for determination of 38 analytes in total, consisting of cytokines, chemokines, and growth factors using the MILLIPLEX MAP Human Cytokine/Chemokine Magnetic Bead Panel - Premixed 38 Plex (Merck Millipore, USA).
# Liver microtissues were cultured for 4 days in HEP-FAT medium, before dosing with obeticholic acid or elafibranor. Both compounds were dissolved in DMSO, diluted in cell culture medium (final DMSO concentration ≤1%) and added to microtissues during a full medium change every two days and in addition on the intervening days compounds were spiked into the media to increase drug concentration back to desired concentrations. Cultures were maintained in the presence of the compound, for a total of 10 days in the presence or absence of TGFβ.
smiles,measurement,setting,value
CC[C@H]1[C@@H](O)[C@@H]2[C@H](CC[C@]3(C)[C@@H]([C@H](C)CCC(=O)O)CC[C@@H]23)[C@@]2(C)CC[C@@H](O)C[C@@H]12 [Obeticholic acid],recovery at 1 µM,[1],110%
same,"inflammatory cytokines, including CXCL1, IL1-Rα, IL-6 and MCP-1",[2]; 10 days of compound treatment,concentration-dependent decrease
same,CXCL1 fold change in production compared to control,"[2]; OCA 0.25 µM QD, D8",1.039
same,CXCL10 fold change in production compared to control,"[2]; OCA 0.25 µM QD, D8",1.592
same,FN1 fold change in production compared to control,"[2]; OCA 0.25 µM QD, D8",1.009
same,IL-1RA fold change in production compared to control,"[2]; OCA 0.25 µM QD, D8",0.6936
same,IL-4 fold change in production compared to control,"[2]; OCA 0.25 µM QD, D8",1.307
same,IL-6 fold change in production compared to control,"[2]; OCA 0.25 µM QD, D8",0.4788
same,IL-8 fold change in production compared to control,"[2]; OCA 0.25 µM QD, D8",1.109
same,MCP-1 fold change in production compared to control,"[2]; OCA 0.25 µM QD, D8",1.237
same,MIP-1a fold change in production compared to control,"[2]; OCA 0.25 µM QD, D8",1.006
same,MIP-1b fold change in production compared to control,"[2]; OCA 0.25 µM QD, D8",1.009
same,TIMP-1 fold change in production compared to control,"[2]; OCA 0.25 µM QD, D8",0.957
same,VEGF fold change in production compared to control,"[2]; OCA 0.25 µM QD, D8",0.3694
same,CXCL1 fold change in production compared to control,"[2]; OCA 0.25 µM QD, D14",0.7512
same,CXCL10 fold change in production compared to control,"[2]; OCA 0.25 µM QD, D14",1.289
same,FN1 fold change in production compared to control,"[2]; OCA 0.25 µM QD, D14",1.087
same,IL-1RA fold change in production compared to control,"[2]; OCA 0.25 µM QD, D14",0.3915
same,IL-4 fold change in production compared to control,"[2]; OCA 0.25 µM QD, D14",1.067
same,IL-6 fold change in production compared to control,"[2]; OCA 0.25 µM QD, D14",0.3892
same,IL-8 fold change in production compared to control,"[2]; OCA 0.25 µM QD, D14",0.7621
same,MCP-1 fold change in production compared to control,"[2]; OCA 0.25 µM QD, D14",1.11
same,MIP-1a fold change in production compared to control,"[2]; OCA 0.25 µM QD, D14",1.483
same,MIP-1b fold change in production compared to control,"[2]; OCA 0.25 µM QD, D14",1.406
same,TIMP-1 fold change in production compared to control,"[2]; OCA 0.25 µM QD, D14",0.7667
same,VEGF fold change in production compared to control,"[2]; OCA 0.25 µM QD, D14",0.2436
same,CXCL1 fold change in production compared to control,"[2]; OCA 5 µM QD, D8",0.9903
same,CXCL10 fold change in production compared to control,"[2]; OCA 5 µM QD, D8",1.252
same,FN1 fold change in production compared to control,"[2]; OCA 5 µM QD, D8",0.9708
same,IL-1RA fold change in production compared to control,"[2]; OCA 5 µM QD, D8",0.2279
same,IL-4 fold change in production compared to control,"[2]; OCA 5 µM QD, D8",1.215
same,IL-6 fold change in production compared to control,"[2]; OCA 5 µM QD, D8",0.3708
same,IL-8 fold change in production compared to control,"[2]; OCA 5 µM QD, D8",1.325
same,MCP-1 fold change in production compared to control,"[2]; OCA 5 µM QD, D8",0.9348
same,MIP-1a fold change in production compared to control,"[2]; OCA 5 µM QD, D8",0.7425
same,MIP-1b fold change in production compared to control,"[2]; OCA 5 µM QD, D8",0.6949
same,TIMP-1 fold change in production compared to control,"[2]; OCA 5 µM QD, D8",0.8577
same,VEGF fold change in production compared to control,"[2]; OCA 5 µM QD, D8",0.4201
same,CXCL1 fold change in production compared to control,"[2]; OCA 5 µM QD, D14",0.8937
same,CXCL10 fold change in production compared to control,"[2]; OCA 5 µM QD, D14",1.722
same,FN1 fold change in production compared to control,"[2]; OCA 5 µM QD, D14",1.05
same,IL-1RA fold change in production compared to control,"[2]; OCA 5 µM QD, D14",0.2225
same,IL-4 fold change in production compared to control,"[2]; OCA 5 µM QD, D14",1.3182
same,IL-6 fold change in production compared to control,"[2]; OCA 5 µM QD, D14",0.3278
same,IL-8 fold change in production compared to control,"[2]; OCA 5 µM QD, D14",2.0708
same,MCP-1 fold change in production compared to control,"[2]; OCA 5 µM QD, D14",0.6363
same,MIP-1a fold change in production compared to control,"[2]; OCA 5 µM QD, D14",0.8372
same,MIP-1b fold change in production compared to control,"[2]; OCA 5 µM QD, D14",0.7752
same,TIMP-1 fold change in production compared to control,"[2]; OCA 5 µM QD, D14",0.8205
same,VEGF fold change in production compared to control,"[2]; OCA 5 µM QD, D14",0.5877
same,CXCL1 fold change in production compared to control,"[2]; OCA 12.5 µM QD, D8",0.5392
same,CXCL10 fold change in production compared to control,"[2]; OCA 12.5 µM QD, D8",1.011
same,FN1 fold change in production compared to control,"[2]; OCA 12.5 µM QD, D8",0.8305
same,IL-1RA fold change in production compared to control,"[2]; OCA 12.5 µM QD, D8",0.1467
same,IL-4 fold change in production compared to control,"[2]; OCA 12.5 µM QD, D8",0.6477
same,IL-6 fold change in production compared to control,"[2]; OCA 12.5 µM QD, D8",0.3353
same,IL-8 fold change in production compared to control,"[2]; OCA 12.5 µM QD, D8",0.6609
same,MCP-1 fold change in production compared to control,"[2]; OCA 12.5 µM QD, D8",0.4398
same,MIP-1a fold change in production compared to control,"[2]; OCA 12.5 µM QD, D8",1.1281
same,MIP-1b fold change in production compared to control,"[2]; OCA 12.5 µM QD, D8",0.9989
same,TIMP-1 fold change in production compared to control,"[2]; OCA 12.5 µM QD, D8",1.076
same,VEGF fold change in production compared to control,"[2]; OCA 12.5 µM QD, D8",0.449
same,CXCL1 fold change in production compared to control,"[2]; OCA 12.5 µM QD, D14",0.5648
same,CXCL10 fold change in production compared to control,"[2]; OCA 12.5 µM QD, D14",0.9485
same,FN1 fold change in production compared to control,"[2]; OCA 12.5 µM QD, D14",0.8335
same,IL-1RA fold change in production compared to control,"[2]; OCA 12.5 µM QD, D14",0.07151
same,IL-4 fold change in production compared to control,"[2]; OCA 12.5 µM QD, D14",0.8808
same,IL-6 fold change in production compared to control,"[2]; OCA 12.5 µM QD, D14",0.05395
same,IL-8 fold change in production compared to control,"[2]; OCA 12.5 µM QD, D14",1.84
same,MCP-1 fold change in production compared to control,"[2]; OCA 12.5 µM QD, D14",0.2656
same,MIP-1a fold change in production compared to control,"[2]; OCA 12.5 µM QD, D14",0.8417
same,MIP-1b fold change in production compared to control,"[2]; OCA 12.5 µM QD, D14",0.7263
same,TIMP-1 fold change in production compared to control,"[2]; OCA 12.5 µM QD, D14",0.9472
same,VEGF fold change in production compared to control,"[2]; OCA 12.5 µM QD, D14",0.5676
